Laboratory results as given in US20170121344A1 (Siga Technologies, Inc., priority 2009, published 2017).
Read-outs that look alike come from different tables or passages of the source.

Tested on: Dengue-2 (Strain New Guinea C)
Experiment: Viral yield assay against Dengue-2 in Vero cells
Assay type: cell-based, Dengue virus
Conditions: Dengue virus
Outline: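 Vero cells were infected with dengue virus at an MOI of 0.1, treated with compound or DMSO vehicle, and kept at 37° C. Supernatant virus was harvested 48 hours post infection and titered on Vero cells, with EC50 derived from yield reduction.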

[1] = Vero cells, MOI 0.1, harvested 48 hours post infection, read-out: Activity (EC50 class) against Dengue-2 Virus in Vero cells
[2] = DENV2, viral yield assay, Vero cells, MOI 0.1, 48 hours post infection, read-out: Activity (EC50 in μM) DENV-2
[3] = Vero, 48 h, read-out: Activity (EC50 class) against Dengue-2 Virus in Vero cells

SMILES	EC50 [1] [µM]	other results
COCc1cc(C)nc2sc(C(=O)NCc3ccco3)c(N)c12 [Compound 209, 3-Amino-4-methoxymethyl-6-methyl-thieno[2,3-b]pyridine-2-carboxylic acid (furan-2-ylmethyl)-amide]	> 25	–
CN1CCc2nc3sc(C(=O)Nc4ccccc4)c(N)c3c(-c3cccs3)c2C1 [Compound 34, 3-Amino-6-methyl-4-thiophen-2-yl-5,6,7,8-tetrahydro-thieno[2,3-b][1,6]naphthyridine-2-carboxylic acid phenylamide]	< 5	–
CN1CCc2nc3sc(C(=O)NCc4ccccc4Cl)c(N)c3cc2C1 [Compound 113, 3-Amino-6-methyl-5,6,7,8-tetrahydro-thieno[2,3-b][1,6]naphthyridine-2-carboxylic acid 2-chloro-benzylamide]	5 to 25	–
CC(=O)c1cnc2sc(C(=O)N(CCc3ccccc3)Cc3cccs3)c(C)c2c1 [Compound 390, 5-acetyl-3-methyl-N-phenethyl-N-(2-thienylmethyl)thieno[2,3-b]pyridine-2-carboxamide]	–	EC50 [2]: < 5 µM
COCc1cc(C)nc2sc(C(=O)Nc3ccccc3Cl)c(N)c12 [Compound 185, 3-Amino-4-methoxymethyl-6-methyl-thieno[2,3-b]pyridine-2-carboxylic acid (2-chloro-phenyl)-amide]	> 25	–
NC(=O)c1sc2nccc(Nc3ccccc3)c2c1N [Compound 158, 3-Amino-4-phenylamino-thieno[2,3-b]pyridine-2-carboxylic acid amide]	> 25	–
COc1ccc(Cl)c(NC(=O)c2sc3nc(-c4ccc5c(c4)OCO5)ccc3c2N)c1 [Compound 589, 3-amino-6-(1,3-benzodioxol-5-yl)-N-(2-chloro-5-methoxy-phenyl)thieno[2,3-b] pyridine-2-carboxamide]	–	EC50 [2]: < 5 µM
Cc1ccc(NC(=O)c2sc3nc4c(cc3c2N)CN(C)CC4)cc1Cl [Compound 45, 3-Amino-6-methyl-5,6,7,8-tetrahydro-thieno[2,3-b][1,6]naphthyridine-2-carboxylic acid (3-chloro-4-methyl-phenyl)-amide]	< 5	–
Nc1c(C(=O)Nc2ccccc2F)sc2nc3c(cc12)CCC3 [Compound 180, 3-Amino-6,7-dihydro-5H-cyclopenta[b]thieno[3,2-e]pyridine-2-carboxylic acid (2-fluoro-phenyl)-amide]	–	EC50 [3]: > 25 µM
CCCc1ccc2c(N)c(C(N)=O)sc2n1 [Compound 71, 3-Amino-6-propyl-thieno[2,3-b]pyridine-2-carboxylic acid amide]	5 to 25	–
CCc1cccc(NC(=O)c2sc3nc(-c4ccc5c(c4)OCO5)ccc3c2N)c1 [Compound 592, 3-amino-6-(1,3-benzodioxol-5-yl)-N-(3-ethylphenyl)thieno[2,3-b]pyridine-2-carboxamide]	–	EC50 [2]: < 5 µM
Cc1cc(C(F)(F)F)c2c(N)c(C(=O)Nc3cccc(C(F)(F)F)c3)sc2n1 [Compound 149, 3-Amino-6-methyl-4-trifluoromethyl-thieno[2,3-b]pyridine-2-carboxylic acid (3-trifluoromethyl-phenyl)-amide]	–	EC50 [3]: > 25 µM
Cc1c(C(=O)N(C)C2CCCC(C)C2)sc2nc(C(F)(F)F)ccc12 (stereo not shown) [Compound 399, N,3-dimethyl-N-(3-methylcyclohexyl)-6-(trifluoromethyl)thieno[2,3-b]pyridine-2-carboxamide]	–	EC50 [2]: < 5 µM
Cc1cc(C)c2c(N)c(C(=O)N3CCOCC3)sc2n1 [Compound 145, (3-Amino-4,6-dimethyl-thieno[2,3-b]pyridin-2-yl)-morpholin-4-yl-methanone]	> 25	–
CN(C)c1ccnc2sc(C(=O)NCc3ccccc3)c(N)c12 [Compound 77, 3-Amino-4-dimethylamino-thieno[2,3-b]pyridine-2-carboxylic acid benzylamide]	5 to 25	–
COc1ccc(C)cc1NC(=O)c1sc2nc(C)cc(C)c2c1N [Compound 259, 3-Amino-4,6-dimethyl-thieno[2,3-b]pyridine-2-carboxylic acid (2-methoxy-5-methyl-phenyl)-amide]	> 25	–
